According to ChEMBL document CHEMBL4507317, “Data for DCP probe BAY-899” (2021):

Assays:
[1] = system: Tyrosine-protein kinase ABL1 (Homo sapiens), P00519 [E255K]; conditions: Compound concentration 1000.0 nM
[2] = system: Tyrosine-protein kinase ABL1 (Homo sapiens), P00519 [M351T]; conditions: Compound concentration 1000.0 nM
[3] = molecular target: Activin receptor type-1 (Homo sapiens) (UniProt Q04771); conditions: Compound concentration 1000.0 nM
[4] = molecular target: Activin receptor type-2A (Homo sapiens) (UniProt P27037); conditions: Compound concentration 1000.0 nM
[5] = molecular target: Mitogen-activated protein kinase kinase kinase 5 (Homo sapiens) (UniProt Q99683); conditions: Compound concentration 1000.0 nM
[6] = molecular target: Calcium/calmodulin-dependent protein kinase type 1D (Homo sapiens) (UniProt Q8IU85); conditions: Compound concentration 1000.0 nM
Sequence of Calcium/calmodulin-dependent protein kinase type 1D (Homo sapiens) (Q8IU85 whole entry, looked up): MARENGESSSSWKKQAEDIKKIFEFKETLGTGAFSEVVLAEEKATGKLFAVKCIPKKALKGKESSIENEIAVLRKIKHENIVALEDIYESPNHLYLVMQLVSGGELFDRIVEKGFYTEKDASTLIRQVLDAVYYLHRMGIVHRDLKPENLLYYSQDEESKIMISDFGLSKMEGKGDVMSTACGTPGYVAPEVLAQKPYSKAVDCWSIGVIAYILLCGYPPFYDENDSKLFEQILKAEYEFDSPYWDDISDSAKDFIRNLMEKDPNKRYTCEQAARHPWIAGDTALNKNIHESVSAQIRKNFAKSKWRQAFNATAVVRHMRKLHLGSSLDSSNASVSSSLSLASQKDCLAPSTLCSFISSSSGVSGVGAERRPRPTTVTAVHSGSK

[7] = molecular target: Calcium/calmodulin-dependent protein kinase type II subunit alpha (Homo sapiens) (UniProt Q9UQM7); conditions: Compound concentration 1000.0 nM
[8] = molecular target: Cyclin-dependent kinase 2 (Homo sapiens) (UniProt P24941); conditions: Compound concentration 1000.0 nM
[9] = molecular target: Cyclin-dependent kinase-like 3 (Homo sapiens) (UniProt Q8IVW4); conditions: Compound concentration 1000.0 nM
[10] = molecular target: Casein kinase I isoform epsilon (Homo sapiens) (UniProt P49674); conditions: Compound concentration 1000.0 nM
[11] = molecular target: Casein kinase II subunit alpha' (Homo sapiens) (UniProt P19784); conditions: Compound concentration 1000.0 nM
Sequence of Casein kinase II subunit alpha' (Homo sapiens) (P19784 whole entry, looked up): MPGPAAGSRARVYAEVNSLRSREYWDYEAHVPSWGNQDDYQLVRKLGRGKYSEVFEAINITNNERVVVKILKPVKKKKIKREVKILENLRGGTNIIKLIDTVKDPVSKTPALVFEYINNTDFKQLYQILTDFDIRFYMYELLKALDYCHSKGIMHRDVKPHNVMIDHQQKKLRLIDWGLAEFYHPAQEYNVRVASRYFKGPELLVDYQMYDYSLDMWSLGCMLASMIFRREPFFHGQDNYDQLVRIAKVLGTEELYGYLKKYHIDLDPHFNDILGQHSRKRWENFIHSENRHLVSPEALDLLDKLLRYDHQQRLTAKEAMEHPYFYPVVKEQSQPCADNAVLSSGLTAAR

[12] = molecular target: Serine/threonine-protein kinase MRCK gamma (Homo sapiens) (UniProt Q6DT37); conditions: Compound concentration 1000.0 nM
Sequence of Serine/threonine-protein kinase MRCK gamma (Homo sapiens) (Q6DT37 whole entry): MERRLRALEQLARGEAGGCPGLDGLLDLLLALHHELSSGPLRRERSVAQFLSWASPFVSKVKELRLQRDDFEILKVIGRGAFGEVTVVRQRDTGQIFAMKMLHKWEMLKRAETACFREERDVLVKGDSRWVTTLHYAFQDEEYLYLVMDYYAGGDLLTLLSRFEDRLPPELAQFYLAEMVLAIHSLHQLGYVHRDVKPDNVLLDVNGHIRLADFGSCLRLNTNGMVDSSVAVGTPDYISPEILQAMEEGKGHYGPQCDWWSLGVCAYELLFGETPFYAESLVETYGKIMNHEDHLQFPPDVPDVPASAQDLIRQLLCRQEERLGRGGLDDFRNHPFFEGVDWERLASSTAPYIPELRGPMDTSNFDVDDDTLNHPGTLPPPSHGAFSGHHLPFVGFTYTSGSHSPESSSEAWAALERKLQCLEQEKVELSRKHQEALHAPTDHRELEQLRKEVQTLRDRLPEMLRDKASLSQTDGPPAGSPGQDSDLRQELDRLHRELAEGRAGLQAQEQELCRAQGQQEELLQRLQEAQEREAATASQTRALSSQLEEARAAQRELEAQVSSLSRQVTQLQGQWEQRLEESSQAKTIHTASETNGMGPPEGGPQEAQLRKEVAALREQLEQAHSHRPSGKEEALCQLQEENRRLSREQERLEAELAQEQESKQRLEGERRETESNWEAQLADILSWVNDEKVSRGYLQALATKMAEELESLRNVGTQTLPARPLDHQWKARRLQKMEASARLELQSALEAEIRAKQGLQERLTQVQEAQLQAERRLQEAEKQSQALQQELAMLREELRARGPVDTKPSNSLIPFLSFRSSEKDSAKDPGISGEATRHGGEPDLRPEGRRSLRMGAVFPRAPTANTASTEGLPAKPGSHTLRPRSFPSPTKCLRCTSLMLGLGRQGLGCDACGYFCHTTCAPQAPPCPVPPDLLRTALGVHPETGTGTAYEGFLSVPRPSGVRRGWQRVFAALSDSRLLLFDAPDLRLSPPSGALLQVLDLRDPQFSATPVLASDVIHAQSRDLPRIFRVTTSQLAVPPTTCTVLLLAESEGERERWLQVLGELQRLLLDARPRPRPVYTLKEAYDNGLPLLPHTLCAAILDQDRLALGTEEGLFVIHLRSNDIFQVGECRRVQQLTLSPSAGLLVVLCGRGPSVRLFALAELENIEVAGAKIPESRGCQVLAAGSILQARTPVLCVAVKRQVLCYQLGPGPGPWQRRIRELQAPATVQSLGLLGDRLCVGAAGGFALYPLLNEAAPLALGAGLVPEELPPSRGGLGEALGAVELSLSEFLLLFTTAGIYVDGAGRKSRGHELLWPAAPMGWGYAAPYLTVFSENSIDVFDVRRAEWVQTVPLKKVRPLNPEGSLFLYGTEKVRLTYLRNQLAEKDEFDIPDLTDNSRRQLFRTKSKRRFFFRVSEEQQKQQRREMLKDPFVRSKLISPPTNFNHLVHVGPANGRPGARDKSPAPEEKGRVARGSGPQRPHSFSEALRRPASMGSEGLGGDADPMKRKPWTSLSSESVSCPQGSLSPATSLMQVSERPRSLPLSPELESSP

[13] = molecular target: Dual specificity tyrosine-phosphorylation-regulated kinase 1B (Homo sapiens) (UniProt Q9Y463); conditions: Compound concentration 1000.0 nM
Sequence of Dual specificity tyrosine-phosphorylation-regulated kinase 1B (Homo sapiens) (Q9Y463 whole entry, looked up): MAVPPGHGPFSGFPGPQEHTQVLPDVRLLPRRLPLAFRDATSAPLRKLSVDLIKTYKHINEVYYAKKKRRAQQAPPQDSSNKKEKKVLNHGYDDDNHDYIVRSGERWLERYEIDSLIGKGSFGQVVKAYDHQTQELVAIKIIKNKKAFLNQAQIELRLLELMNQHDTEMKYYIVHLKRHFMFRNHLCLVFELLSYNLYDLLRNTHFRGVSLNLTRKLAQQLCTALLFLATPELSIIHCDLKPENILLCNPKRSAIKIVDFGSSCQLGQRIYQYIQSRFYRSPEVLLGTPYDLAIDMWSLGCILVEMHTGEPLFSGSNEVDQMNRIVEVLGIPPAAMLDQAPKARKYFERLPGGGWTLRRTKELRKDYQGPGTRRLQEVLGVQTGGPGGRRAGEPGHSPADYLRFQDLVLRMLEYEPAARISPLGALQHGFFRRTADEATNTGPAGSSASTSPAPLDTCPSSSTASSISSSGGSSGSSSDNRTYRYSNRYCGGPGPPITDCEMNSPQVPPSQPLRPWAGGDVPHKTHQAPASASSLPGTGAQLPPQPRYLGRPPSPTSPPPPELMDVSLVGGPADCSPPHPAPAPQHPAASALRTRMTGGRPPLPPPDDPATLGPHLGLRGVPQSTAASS

[14] = system: Epidermal growth factor receptor (Homo sapiens), P00533 [L858R,T790M]; conditions: Compound concentration 1000.0 nM
[15] = system: Receptor-type tyrosine-protein kinase FLT3 (Homo sapiens), P36888 [D835H]; conditions: Compound concentration 1000.0 nM
[16] = system: Receptor-type tyrosine-protein kinase FLT3 (Homo sapiens), P36888 [D835V]; conditions: Compound concentration 1000.0 nM
[17] = system: Receptor-type tyrosine-protein kinase FLT3 (Homo sapiens), P36888 [R834Q]; conditions: Compound concentration 1000.0 nM
[18] = molecular target: Receptor-type tyrosine-protein kinase FLT3 (Homo sapiens) (UniProt P36888); conditions: Compound concentration 1000.0 nM
[19] = molecular target: Glycogen synthase kinase-3 beta (Homo sapiens) (UniProt P49841); conditions: Compound concentration 1000.0 nM
[20] = molecular target: Tyrosine-protein kinase HCK (Homo sapiens) (UniProt P08631); conditions: Compound concentration 1000.0 nM
[21] = molecular target: Mast/stem cell growth factor receptor Kit (Homo sapiens) (UniProt P10721); conditions: Compound concentration 1000.0 nM
[22] = molecular target: Serine/threonine-protein kinase LATS1 (Homo sapiens) (UniProt O95835); conditions: Compound concentration 1000.0 nM
Sequence of Serine/threonine-protein kinase LATS1 (Homo sapiens) (O95835 whole entry): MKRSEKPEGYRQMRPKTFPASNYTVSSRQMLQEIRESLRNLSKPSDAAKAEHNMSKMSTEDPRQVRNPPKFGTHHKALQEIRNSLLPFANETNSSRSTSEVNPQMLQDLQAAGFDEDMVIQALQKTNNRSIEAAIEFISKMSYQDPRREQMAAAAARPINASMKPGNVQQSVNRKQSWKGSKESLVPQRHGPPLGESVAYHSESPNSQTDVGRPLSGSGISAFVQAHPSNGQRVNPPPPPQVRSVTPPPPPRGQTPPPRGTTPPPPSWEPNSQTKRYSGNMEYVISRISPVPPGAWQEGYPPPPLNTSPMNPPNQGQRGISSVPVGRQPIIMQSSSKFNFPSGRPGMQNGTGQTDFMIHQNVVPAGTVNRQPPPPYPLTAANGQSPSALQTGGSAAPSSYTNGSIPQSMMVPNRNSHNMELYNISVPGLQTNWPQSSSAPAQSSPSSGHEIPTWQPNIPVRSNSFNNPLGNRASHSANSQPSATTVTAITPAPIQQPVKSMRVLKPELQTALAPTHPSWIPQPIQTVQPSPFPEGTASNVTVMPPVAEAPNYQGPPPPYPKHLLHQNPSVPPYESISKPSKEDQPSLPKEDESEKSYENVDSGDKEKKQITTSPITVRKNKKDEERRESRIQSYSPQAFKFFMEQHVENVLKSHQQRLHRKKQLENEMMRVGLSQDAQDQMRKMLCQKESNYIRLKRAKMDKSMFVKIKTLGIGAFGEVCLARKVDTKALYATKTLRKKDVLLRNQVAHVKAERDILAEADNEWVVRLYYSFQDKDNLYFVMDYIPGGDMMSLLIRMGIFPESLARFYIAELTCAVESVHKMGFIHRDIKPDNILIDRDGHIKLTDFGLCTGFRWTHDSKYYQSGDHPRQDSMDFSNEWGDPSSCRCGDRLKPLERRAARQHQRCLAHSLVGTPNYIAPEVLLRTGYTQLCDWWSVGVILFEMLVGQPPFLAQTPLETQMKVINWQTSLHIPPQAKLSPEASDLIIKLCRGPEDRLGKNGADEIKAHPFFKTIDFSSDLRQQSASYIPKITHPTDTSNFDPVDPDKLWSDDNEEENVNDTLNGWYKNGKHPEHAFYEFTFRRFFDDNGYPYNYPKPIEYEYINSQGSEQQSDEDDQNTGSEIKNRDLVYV

[23] = molecular target: Serine/threonine-protein kinase Nek6 (Homo sapiens) (UniProt Q9HC98); conditions: Compound concentration 1000.0 nM
[24] = molecular target: Mitogen-activated protein kinase 13 (Homo sapiens) (UniProt O15264); conditions: Compound concentration 1000.0 nM
[25] = molecular target: Serine/threonine-protein kinase pim-1 (Homo sapiens) (UniProt P11309); conditions: Compound concentration 1000.0 nM
[26] = molecular target: cAMP-dependent protein kinase catalytic subunit beta (Homo sapiens) (UniProt P22694); conditions: Compound concentration 1000.0 nM
[27] = molecular target: Serine/threonine-protein kinase PLK1 (Homo sapiens) (UniProt P53350); conditions: Compound concentration 1000.0 nM
[28] = molecular target: Serine/threonine-protein kinase PLK3 (Homo sapiens) (UniProt Q9H4B4); conditions: Compound concentration 1000.0 nM
[29] = molecular target: Protein kinase C theta type (Homo sapiens) (UniProt Q04759); conditions: Compound concentration 1000.0 nM
[30] = molecular target: Protein-tyrosine kinase 2-beta (Homo sapiens) (UniProt Q14289); conditions: Compound concentration 1000.0 nM
[31] = system: Proto-oncogene tyrosine-protein kinase receptor Ret (Homo sapiens), P07949 [V804L]; conditions: Compound concentration 1000.0 nM
[32] = molecular target: Ribosomal protein S6 kinase alpha-2 (Homo sapiens) (UniProt Q15349); conditions: Compound concentration 1000.0 nM
[33] = molecular target: Angiopoietin-1 receptor (Homo sapiens) (UniProt Q02763); conditions: Compound concentration 1000.0 nM
[34] = molecular target: Serine/threonine-protein kinase WNK1 (Homo sapiens) (UniProt Q9H4A3); conditions: Compound concentration 1000.0 nM
[35] = molecular target: Serine/threonine-protein kinase WNK2 (Homo sapiens) (UniProt Q9Y3S1); conditions: Compound concentration 1000.0 nM
[36] = molecular target: 5-hydroxytryptamine receptor 1D (Homo sapiens) (UniProt P28221); conditions: Compound concentration 10.0 uM
Sequence of 5-hydroxytryptamine receptor 1D (Homo sapiens) (P28221 whole entry): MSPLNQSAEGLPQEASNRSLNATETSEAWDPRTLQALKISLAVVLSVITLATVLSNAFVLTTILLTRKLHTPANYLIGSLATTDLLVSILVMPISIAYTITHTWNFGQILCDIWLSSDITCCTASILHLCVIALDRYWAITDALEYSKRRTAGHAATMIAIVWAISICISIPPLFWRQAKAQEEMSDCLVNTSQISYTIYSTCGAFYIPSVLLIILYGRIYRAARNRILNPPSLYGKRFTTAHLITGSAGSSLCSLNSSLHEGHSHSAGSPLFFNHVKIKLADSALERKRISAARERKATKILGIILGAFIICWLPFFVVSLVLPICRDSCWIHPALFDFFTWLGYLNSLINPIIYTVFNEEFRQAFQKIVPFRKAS

[37] = molecular target: T1, Alpha-2A adrenergic receptor (Homo sapiens) (UniProt P08913); conditions: Compound concentration 10.0 uM
T1 sequence (whole entry): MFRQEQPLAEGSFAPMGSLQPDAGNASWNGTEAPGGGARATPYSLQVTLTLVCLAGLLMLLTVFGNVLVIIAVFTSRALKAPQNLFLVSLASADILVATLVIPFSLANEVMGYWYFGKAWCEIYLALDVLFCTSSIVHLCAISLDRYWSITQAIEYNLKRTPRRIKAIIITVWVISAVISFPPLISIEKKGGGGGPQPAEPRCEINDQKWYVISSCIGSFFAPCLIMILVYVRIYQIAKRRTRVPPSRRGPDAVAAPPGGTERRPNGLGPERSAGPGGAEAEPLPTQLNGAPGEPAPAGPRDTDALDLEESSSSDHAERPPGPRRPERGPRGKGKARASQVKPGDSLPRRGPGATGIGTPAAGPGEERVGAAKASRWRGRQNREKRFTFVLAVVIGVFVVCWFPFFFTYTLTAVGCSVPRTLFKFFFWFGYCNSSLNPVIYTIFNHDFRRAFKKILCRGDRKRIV

Sequence of Activin receptor type-1 (Homo sapiens) (Q04771 whole entry): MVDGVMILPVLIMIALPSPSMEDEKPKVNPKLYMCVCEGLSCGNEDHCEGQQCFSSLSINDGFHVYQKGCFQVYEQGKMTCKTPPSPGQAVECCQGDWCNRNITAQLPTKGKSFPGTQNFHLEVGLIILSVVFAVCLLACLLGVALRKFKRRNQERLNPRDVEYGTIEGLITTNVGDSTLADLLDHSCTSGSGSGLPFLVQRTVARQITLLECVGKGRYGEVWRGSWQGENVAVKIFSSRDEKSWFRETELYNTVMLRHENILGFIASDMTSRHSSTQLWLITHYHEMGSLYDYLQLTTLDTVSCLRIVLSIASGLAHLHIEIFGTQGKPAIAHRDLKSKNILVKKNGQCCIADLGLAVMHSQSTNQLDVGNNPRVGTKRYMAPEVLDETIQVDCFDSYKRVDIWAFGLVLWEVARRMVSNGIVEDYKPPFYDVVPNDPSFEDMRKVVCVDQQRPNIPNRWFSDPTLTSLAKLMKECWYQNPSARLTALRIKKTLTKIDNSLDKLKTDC

O=C(Nc1cnc(Oc2ccc(F)cc2)nc1)N1CCc2ncccc2[C@@H]1c1ccc(F)cc1 [BAY-899]
inactive: residual activity [1] 100% | residual activity [2] 57% | residual activity [3] 97% | residual activity [4] 83% | residual activity [5] 84% | residual activity [6] 100% | residual activity [7] 92% | residual activity [8] 100% | residual activity [9] 77% | residual activity [10] 66% | residual activity [11] 100% | residual activity [12] 98% | residual activity [13] 78% | residual activity [14] 70% | residual activity [15] 100% | residual activity [16] 100% | residual activity [17] 99% | residual activity [18] 90% | residual activity [19] 100% | residual activity [20] 96% | residual activity [21] 81% | residual activity [22] 100% | residual activity [23] 100% | residual activity [24] 100% | residual activity [25] 91% | residual activity [26] 85% | residual activity [27] 80% | residual activity [28] 87% | residual activity [29] 94% | residual activity [30] 100% | residual activity [31] 86% | residual activity [32] 97% | residual activity [33] 93% | residual activity [34] 100% | residual activity [35] 79% | inhibition [36] 4.38% | inhibition [37] 9.77%

O=C(Nc1ccc(Oc2ccc(F)cc2)cc1)N1CCc2ncccc2[C@H]1c1ccc(F)cc1 [BAY-897]
inactive: residual activity [1] 100% | residual activity [2] 51% | residual activity [3] 96% | residual activity [4] 100% | residual activity [5] 87% | residual activity [6] 100% | residual activity [7] 88% | residual activity [8] 90% | residual activity [9] 82% | residual activity [10] 85% | residual activity [11] 100% | residual activity [12] 93% | residual activity [13] 88% | residual activity [14] 71% | residual activity [15] 86% | residual activity [16] 96% | residual activity [17] 97% | residual activity [18] 100% | residual activity [19] 100% | residual activity [20] 100% | residual activity [21] 91% | residual activity [22] 86% | residual activity [23] 100% | residual activity [24] 96% | residual activity [25] 99% | residual activity [26] 83% | residual activity [27] 78% | residual activity [28] 87% | residual activity [29] 95% | residual activity [30] 89% | residual activity [31] 95% | residual activity [32] 100% | residual activity [33] 100% | residual activity [34] 96% | residual activity [35] 88% | inhibition [36] 43.3% | inhibition [37] 7.16%
